According to patent publication US9833497B2, “Human originated EGF domain proteins and use of the same” (CHENGDU SOURCEBIO LIMITED-LIABILITY COMPANY, priority 2013, dated 2017):

Tests used:
Format in all cases: cell-based
E. coli DH5α = experiment: Antibacterial activity: MIC and growth curve against E. coli DH5α in 96-well plate; conditions: minimal inhibitory concentration against E. coli DH5α; 96-well plate, 5×10^5 CFU/mL, 37° C., judged after 8 h
Summary of the method: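 MIC taken as lowest protein level with no bacterial growth, tracked by A600 every 30 min during 37 °C, 175 rpm culture. Two-fold protein series 50-12.5 μg/mL final, triplicate wells, against 5×10^5 CFU/mL of LB-washed mid-log cells.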

E. coli BL21 = experiment: MIC against Gram-negative bacteria: E. coli BL21; conditions: for MIC (μg/mL) E. coli BL21 / MIC against E. coli BL21: 5×10^5 CFU/mL
Summary of the method: (§1)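 Growth inhibition by human EGF domain proteins was scored in LB liquid culture seeded at 5×10^5 CFU/mL. Protein was applied as a two-fold dilution series in triplicate, with shaking incubation at 37° C; MIC is the lowest concentration giving no growth.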

Pseudomonas aeruginosa = experiment: MIC against Gram-negative bacteria: Pseudomonas aeruginosa; conditions: for MIC (μg/mL) P. aeruginosa / MIC against P. aeruginosa: 5×10^5 CFU/mL
Summary of the method: as §1

Klebsiella pneumonia = experiment: MIC against Gram-negative bacteria: Klebsiella pneumonia; conditions: for MIC (μg/mL) K. pneumonia / MIC against K. pneumonia: 5×10^5 CFU/mL
Summary of the method: as §1

Enterobacter cloacae = experiment: MIC against Gram-negative bacteria: Enterobacter cloacae; conditions: for MIC (μg/mL) E. cloacae / MIC against E. cloacae: 5×10^5 CFU/mL
Summary of the method: as §1

Aeromonas hydrophila = experiment: MIC against Gram-negative bacteria: Aeromonas hydrophila; conditions: for MIC (μg/mL) A. hydrophila / MIC against A. hydrophila: 5×10^5 CFU/mL
Summary of the method: as §1

Citrobacter diversus = experiment: MIC against Gram-negative bacteria: Citrobacter diversus; conditions: for MIC (μg/mL) C. diversus / MIC against C. diversus: 5×10^5 CFU/mL
Summary of the method: as §1

Moraxella catarrhalis = experiment: MIC against Gram-negative bacteria: Moraxella catarrhalis; conditions: for MIC (μg/mL) M. catarrhalis / MIC against M. catarrhalis: 5×10^5 CFU/mL
Summary of the method: as §1

Proteus mirabilis = experiment: MIC against Gram-negative bacteria: Proteus mirabilis; conditions: for MIC (μg/mL) P. mirabilis / MIC against P. mirabilis: 5×10^5 CFU/mL
Summary of the method: as §1

Proteus vulgaris = experiment: MIC against Gram-negative bacteria: Proteus vulgaris; conditions: for MIC (μg/mL) P. vulgaris / MIC against P. vulgaris: 5×10^5 CFU/mL
Summary of the method: as §1

Serratia marcescens = experiment: MIC against Gram-negative bacteria: Serratia marcescens; conditions: for MIC (μg/mL) S. marcescens / MIC against S. marcescens: 5×10^5 CFU/mL
Summary of the method: as §1

[1] = E. coli BL21, 10 h cultivation at 37° C.
[2] = P. aeruginosa, 10 h cultivation at 37° C.
[3] = K. pneumonia, 10 h cultivation at 37° C.
[4] = E. cloacae, 10 h cultivation at 37° C.
[5] = A. hydrophila, 10 h cultivation at 37° C.
[6] = C. diversus, 10 h cultivation at 37° C.
[7] = M. catarrhalis, 10 h cultivation at 37° C.
[8] = P. mirabilis, 10 h cultivation at 37° C.
[9] = P. vulgaris, 10 h cultivation at 37° C.
[10] = S. marcescens, 10 h cultivation at 37° C.

Substance	MIC (E. coli DH5α) [µg/mL]	MIC (μg/mL) E. coli BL21 (E. coli BL21; [1]) [µg/mL]	MIC (μg/mL) P. aeruginosa (Pseudomonas aeruginosa; [2]) [µg/mL]	MIC (μg/mL) K. pneumonia (Klebsiella pneumonia; [3]) [µg/mL]	MIC (μg/mL) E. cloacae (Enterobacter cloacae; [4]) [µg/mL]	MIC (μg/mL) A. hydrophila (Aeromonas hydrophila; [5]) [µg/mL]	MIC (μg/mL) C. diversus (Citrobacter diversus; [6]) [µg/mL]	MIC (μg/mL) M. catarrhalis (Moraxella catarrhalis; [7]) [µg/mL]	MIC (μg/mL) P. mirabilis (Proteus mirabilis; [8]) [µg/mL]	MIC (μg/mL) P. vulgaris (Proteus vulgaris; [9]) [µg/mL]	MIC (μg/mL) S. marcescens (Serratia marcescens; [10]) [µg/mL]	MIC against E. coli BL21 (E. coli BL21; 96-well plate, 37° C., 10 h) [µg/mL]	MIC against P. aeruginosa (Pseudomonas aeruginosa; 96-well plate, 37° C., 10 h) [µg/mL]	MIC against K. pneumonia (Klebsiella pneumonia; 96-well plate, 37° C., 10 h) [µg/mL]	MIC against E. cloacae (Enterobacter cloacae; 96-well plate, 37° C., 10 h) [µg/mL]	MIC against A. hydrophila (Aeromonas hydrophila; 96-well plate, 37° C., 10 h) [µg/mL]	MIC against C. diversus (Citrobacter diversus; 96-well plate, 37° C., 10 h) [µg/mL]	MIC against M. catarrhalis (Moraxella catarrhalis; 96-well plate, 37° C., 10 h) [µg/mL]	MIC against P. mirabilis (Proteus mirabilis; 96-well plate, 37° C., 10 h) [µg/mL]	MIC against P. vulgaris (Proteus vulgaris; 96-well plate, 37° C., 10 h) [µg/mL]	further results
PRT209 (DVDECAQALHDCRPSQDCHNLPGSYQCTCPDGYR; listed as Homo sapiens)	12.5	12.5	12.5	25	12.5	12.5	12.5	12.5	12.5	50	12.5	–	–	–	–	–	–	–	–	–	–
PRT555 (CDCSAAGTQGNACRKDPRVGRCLCKPNFQGTHCELCAPGFYGPGCQP; listed as Homo sapiens)	50	–	–	–	–	–	–	–	–	–	–	25	12.5	25	50	25	12.5	25	50	25	MIC against S. marcescens (Serratia marcescens; 96-well plate, 37° C., 10 h): 12.5 µg/mL
PRT1000 (ELGGCISAPCAHGGTCYPQPSGYNCTCPTGYTGPTCS; listed as Homo sapiens)	50	–	–	–	–	–	–	–	–	–	–	–	–	–	–	–	–	–	–	–	MIC (E. coli BL21; [1]): 12.5 µg/mL; MIC (Pseudomonas aeruginosa; [2]): 50 µg/mL; MIC (Klebsiella pneumonia; [3]): 25 µg/mL; MIC (Enterobacter cloacae; [4]): 12.5 µg/mL; MIC (Aeromonas hydrophila; [5]): 25 µg/mL; MIC (Citrobacter diversus; [6]): 50 µg/mL; MIC (Moraxella catarrhalis; [7]): 25 µg/mL; MIC (Proteus mirabilis; [8]): 12.5 µg/mL; MIC (Proteus vulgaris; [9]): 25 µg/mL; MIC (Serratia marcescens; [10]): 50 µg/mL
PRT846 (CNCSVVGSLNVNRCNQTTGQCECRPGYQGLHCETCKEGFYLNYTSGLCQP; listed as Homo sapiens)	25	12.5	25	50	12.5	12.5	12.5	12.5	12.5	12.5	12.5	–	–	–	–	–	–	–	–	–	–
PRT62 (ASGDCVPSPCHNGGTCLEEEEGVRCLCLPGYGGDLCD; listed as Homo sapiens)	12.5	–	–	–	–	–	–	–	–	–	–	–	–	–	–	–	–	–	–	–	MIC (μg/mL) E. coli BL21 (E. coli BL21; E. coli BL21, 96-well plate, 37° C., 10 h): 100 µg/mL; MIC (μg/mL) P. aeruginosa (Pseudomonas aeruginosa; Pseudomonas aeruginosa, 96-well plate, 37° C., 10 h): 12.5 µg/mL; MIC (μg/mL) K. pneumonia (Klebsiella pneumonia; Klebsiella pneumonia, 96-well plate, 37° C., 10 h): 12.5 µg/mL; MIC (μg/mL) E. cloacae (Enterobacter cloacae; Enterobacter cloacae, 96-well plate, 37° C., 10 h): 12.5 µg/mL; MIC (μg/mL) A. hydrophila (Aeromonas hydrophila; Aeromonas hydrophila, 96-well plate, 37° C., 10 h): 25 µg/mL; MIC (μg/mL) C. diversus (Citrobacter diversus; Citrobacter diversus, 96-well plate, 37° C., 10 h): 12.5 µg/mL; MIC (μg/mL) M. catarrhalis (Moraxella catarrhalis; Moraxella catarrhalis, 96-well plate, 37° C., 10 h): 25 µg/mL; MIC (μg/mL) P. mirabilis (Proteus mirabilis; Proteus mirabilis, 96-well plate, 37° C., 10 h): 12.5 µg/mL; MIC (μg/mL) P. vulgaris (Proteus vulgaris; Proteus vulgaris, 96-well plate, 37° C., 10 h): 12.5 µg/mL; MIC (μg/mL) S. marcescens (Serratia marcescens; Serratia marcescens, 96-well plate, 37° C., 10 h): 25 µg/mL
PRT503 (CACPLTIASNNFSPTCHLNDGDEVVCDWCAPGYSGAWCERCADGYYGNPTVPGESCVP; listed as Homo sapiens)	12.5	–	–	–	–	–	–	–	–	–	–	25	50	25	12.5	25	50	12.5	50	12.5	MIC against S. marcescens (Serratia marcescens; 96-well plate, 37° C., 10 h): 50 µg/mL
